Measurements reported in ChEMBL document CHEMBL3853328, “A molecular dynamics simulation investigation of the relative stability of the cyclic peptide octreotide and its deprotonated and its (CF3)-Trp substituted analogs in different solvents” (Bioorg Med Chem, 2016).

Biological target: Somatostatin receptor type 2 (Homo sapiens, UniProt P30874)
Assay: Binding affinity to human SST2 receptor

Chain of Somatostatin receptor type 2 (P30874 whole entry): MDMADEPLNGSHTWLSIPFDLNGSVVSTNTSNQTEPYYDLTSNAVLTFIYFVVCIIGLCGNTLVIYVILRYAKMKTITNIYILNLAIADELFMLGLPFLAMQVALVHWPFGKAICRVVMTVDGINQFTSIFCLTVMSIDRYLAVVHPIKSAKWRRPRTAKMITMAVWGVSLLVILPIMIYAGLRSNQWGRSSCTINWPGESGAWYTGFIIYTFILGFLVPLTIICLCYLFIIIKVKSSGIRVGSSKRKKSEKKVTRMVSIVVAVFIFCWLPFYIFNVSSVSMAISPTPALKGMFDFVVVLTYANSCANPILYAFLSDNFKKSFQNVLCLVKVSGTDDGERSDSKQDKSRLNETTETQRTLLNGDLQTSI

Kd: 15.5 nM
SMILES: C[C@@H](O)[C@H](CO)NC(=O)[C@@H]1CSSC[C@H](NC(=O)[C@H](N)Cc2ccccc2)C(=O)N[C@@H](Cc2ccccc2)C(=O)N[C@H](Cc2c(C(F)(F)F)[nH]c3ccccc23)C(=O)N[C@@H](CCCCN)C(=O)N[C@@H]([C@@H](C)O)C(=O)N1
